In patent US9926302B2, “Heteroaryl substituted heterocyclyl sulfones” (priority 2014, dated 2018):

Each compound was assayed against T1, Human CaV2.2 channels (Homo sapiens, UniProt Q00975) (assay: Fluorescence assay for CaV2.2 channels using potassium depolarization to induce channel opening (FLIPR, Fluo 4)). Conditions: 3 μM test compound; alternative assay buffer 30 mM KCl (inactivated channel state); HEK293 cells stably expressing human CaV2.2.
T1 construct: expressed in transfected cells
Format: cell-based
Text: In the process, the Ca^2+ influx is quantified in the FLIPR assay with the aid of a Ca^2+-sensitive dye (type Fluo-4, Molecular Probes Europe BV, Leiden, the Netherlands) in a fluorescent imaging plate reader (FLIPR 3, Molecular Devices, Sunnyvale, USA), as described hereinafter.
2.1 Fluorescence Assay for CaV2.2 Channels Using Potassium Depolarization to Induce Channel Opening
Human CaV2.2 channels were stably expressed in HEK293 cells together with alpha2-delta and beta subunits of voltage gated calcium channels. In addition, an inwardly rectifying potassium channel (Kir2.3) was stably expressed in these cells to augment control of the cell membrane potential by the concentration of extracellular potassium ions. Raise of the extracellular potassium concentration leads to depolarization of the membrane potential and thus regulates the voltage dependent state of CaV2.2 channels. For preparation, cells were seeded in black poly-D-lysine coated 96-well plates (Becton Dickinson, Biocoat 4640) in 100 μL medium [500 mL DMEM/F-12 plus Glutamax (Invitrogen 31331-093) plus 5.5 mL MEM NEAA 100× (Invitrogen 11140-035) plus 50 mL FBS decomplemented (Invitrogen 10270-106) plus 200 μg/mL Geneticin (Invitrogen 10131-027) plus 50 μg/mL Hygromycin B (Invitrogen 10687-010) plus 2 μg/mL Blasticidin (anti-bl5b Invivo-Gen) plus 0.2 μg/mL Puromycin (A 11138-03)] at a cell density of 30.000 cells per well. Plates were incubated at 37° C. (5% CO2) for 20 to 23 h. On the day of experiment medium was discarded and cells were loaded with Fluo 4 by addition of 100 μL of basic assay buffer (10 mM HEPES, 1 mM KCl, 149 mM NaCl, 0.8 mM CaCl2, 1.7 mM MgCl2, 10 mM Glucose, 0.1% BSA. pH 7.4) containing 2 μM Fluo 4 (Molecular Probes; F-14201), 0.01% pluronic acid (Molecular Probes; P-6866) and 2.5 mM probenecid (Molecular Probes; P36400). Cells were incubated in the dark at 25° C. for 60 min. Then dye containing buffer was discarded and 100 μL basic (1 mM KCl) or alternative (30 mM KCl) assay buffer was added. The alternative assay buffer contained altered concentrations of KCl (30 mM) and NaCl (120 mM) and was used in order to promote the inactivated channel state. After that 25 μL of basic or alternative assay buffer with or without test compound were added and cells were incubated again in the dark at 25° C. for 15 min. Fluorescence intensity was measured on a FLIPR 3 instrument (Molecular Devices Corp., Sunnyvale, Calif.) with excitation at 480 nm and emission at 535 nm. After continuously reading fluorescence for 30 sec, 50 μL of basic assay buffer containing 210 mM KCl (NaCl omitted) were added for depolarization. Peak fluorescent signal intensity was determined and the amplitude of the peak signal, normalized to base line, was used to measure channel inhibition by test compounds.

T1 sequence (P54289 947-1103): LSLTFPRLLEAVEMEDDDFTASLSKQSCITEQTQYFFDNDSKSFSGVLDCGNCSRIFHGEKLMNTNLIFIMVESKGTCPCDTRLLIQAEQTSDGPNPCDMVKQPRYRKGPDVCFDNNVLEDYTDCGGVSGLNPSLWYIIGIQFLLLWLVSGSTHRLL
T1 sequence (P54289 25-946): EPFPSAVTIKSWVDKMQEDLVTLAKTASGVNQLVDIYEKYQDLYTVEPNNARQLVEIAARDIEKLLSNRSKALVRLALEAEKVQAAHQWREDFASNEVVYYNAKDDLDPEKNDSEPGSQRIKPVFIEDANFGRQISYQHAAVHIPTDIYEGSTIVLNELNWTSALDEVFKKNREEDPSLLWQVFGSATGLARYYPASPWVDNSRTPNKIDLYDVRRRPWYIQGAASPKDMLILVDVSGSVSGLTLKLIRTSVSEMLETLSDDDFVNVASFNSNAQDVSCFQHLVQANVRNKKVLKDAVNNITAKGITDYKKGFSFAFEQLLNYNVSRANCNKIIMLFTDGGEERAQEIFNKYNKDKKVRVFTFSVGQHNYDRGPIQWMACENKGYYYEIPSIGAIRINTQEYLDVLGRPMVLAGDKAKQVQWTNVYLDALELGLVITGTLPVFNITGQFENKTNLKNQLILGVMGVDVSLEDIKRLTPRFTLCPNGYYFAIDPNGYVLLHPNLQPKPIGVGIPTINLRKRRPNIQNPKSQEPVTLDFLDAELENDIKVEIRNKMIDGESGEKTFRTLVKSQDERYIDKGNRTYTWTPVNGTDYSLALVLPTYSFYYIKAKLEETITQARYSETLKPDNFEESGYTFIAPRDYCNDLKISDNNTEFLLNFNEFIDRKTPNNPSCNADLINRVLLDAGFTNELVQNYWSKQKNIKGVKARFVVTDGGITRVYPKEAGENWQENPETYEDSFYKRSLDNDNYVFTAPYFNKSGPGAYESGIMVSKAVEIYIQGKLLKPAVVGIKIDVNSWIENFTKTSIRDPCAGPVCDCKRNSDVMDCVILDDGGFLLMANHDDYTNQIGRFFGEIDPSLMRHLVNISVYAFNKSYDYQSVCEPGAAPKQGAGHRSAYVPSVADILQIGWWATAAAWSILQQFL
T1 sequence (P54284 whole entry, further chain): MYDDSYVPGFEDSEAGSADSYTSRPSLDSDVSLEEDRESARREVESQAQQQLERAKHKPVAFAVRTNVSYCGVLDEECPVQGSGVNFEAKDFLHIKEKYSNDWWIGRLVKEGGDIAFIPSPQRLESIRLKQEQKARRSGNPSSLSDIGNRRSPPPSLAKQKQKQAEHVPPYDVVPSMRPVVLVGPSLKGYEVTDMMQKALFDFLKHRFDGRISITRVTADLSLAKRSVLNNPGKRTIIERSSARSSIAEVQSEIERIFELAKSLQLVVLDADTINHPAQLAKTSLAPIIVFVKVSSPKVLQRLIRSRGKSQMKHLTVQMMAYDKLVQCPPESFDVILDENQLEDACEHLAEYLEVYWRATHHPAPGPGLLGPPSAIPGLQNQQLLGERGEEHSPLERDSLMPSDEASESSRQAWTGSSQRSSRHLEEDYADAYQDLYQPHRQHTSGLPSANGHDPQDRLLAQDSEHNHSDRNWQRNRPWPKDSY
T1 sequence (Q00975 whole entry): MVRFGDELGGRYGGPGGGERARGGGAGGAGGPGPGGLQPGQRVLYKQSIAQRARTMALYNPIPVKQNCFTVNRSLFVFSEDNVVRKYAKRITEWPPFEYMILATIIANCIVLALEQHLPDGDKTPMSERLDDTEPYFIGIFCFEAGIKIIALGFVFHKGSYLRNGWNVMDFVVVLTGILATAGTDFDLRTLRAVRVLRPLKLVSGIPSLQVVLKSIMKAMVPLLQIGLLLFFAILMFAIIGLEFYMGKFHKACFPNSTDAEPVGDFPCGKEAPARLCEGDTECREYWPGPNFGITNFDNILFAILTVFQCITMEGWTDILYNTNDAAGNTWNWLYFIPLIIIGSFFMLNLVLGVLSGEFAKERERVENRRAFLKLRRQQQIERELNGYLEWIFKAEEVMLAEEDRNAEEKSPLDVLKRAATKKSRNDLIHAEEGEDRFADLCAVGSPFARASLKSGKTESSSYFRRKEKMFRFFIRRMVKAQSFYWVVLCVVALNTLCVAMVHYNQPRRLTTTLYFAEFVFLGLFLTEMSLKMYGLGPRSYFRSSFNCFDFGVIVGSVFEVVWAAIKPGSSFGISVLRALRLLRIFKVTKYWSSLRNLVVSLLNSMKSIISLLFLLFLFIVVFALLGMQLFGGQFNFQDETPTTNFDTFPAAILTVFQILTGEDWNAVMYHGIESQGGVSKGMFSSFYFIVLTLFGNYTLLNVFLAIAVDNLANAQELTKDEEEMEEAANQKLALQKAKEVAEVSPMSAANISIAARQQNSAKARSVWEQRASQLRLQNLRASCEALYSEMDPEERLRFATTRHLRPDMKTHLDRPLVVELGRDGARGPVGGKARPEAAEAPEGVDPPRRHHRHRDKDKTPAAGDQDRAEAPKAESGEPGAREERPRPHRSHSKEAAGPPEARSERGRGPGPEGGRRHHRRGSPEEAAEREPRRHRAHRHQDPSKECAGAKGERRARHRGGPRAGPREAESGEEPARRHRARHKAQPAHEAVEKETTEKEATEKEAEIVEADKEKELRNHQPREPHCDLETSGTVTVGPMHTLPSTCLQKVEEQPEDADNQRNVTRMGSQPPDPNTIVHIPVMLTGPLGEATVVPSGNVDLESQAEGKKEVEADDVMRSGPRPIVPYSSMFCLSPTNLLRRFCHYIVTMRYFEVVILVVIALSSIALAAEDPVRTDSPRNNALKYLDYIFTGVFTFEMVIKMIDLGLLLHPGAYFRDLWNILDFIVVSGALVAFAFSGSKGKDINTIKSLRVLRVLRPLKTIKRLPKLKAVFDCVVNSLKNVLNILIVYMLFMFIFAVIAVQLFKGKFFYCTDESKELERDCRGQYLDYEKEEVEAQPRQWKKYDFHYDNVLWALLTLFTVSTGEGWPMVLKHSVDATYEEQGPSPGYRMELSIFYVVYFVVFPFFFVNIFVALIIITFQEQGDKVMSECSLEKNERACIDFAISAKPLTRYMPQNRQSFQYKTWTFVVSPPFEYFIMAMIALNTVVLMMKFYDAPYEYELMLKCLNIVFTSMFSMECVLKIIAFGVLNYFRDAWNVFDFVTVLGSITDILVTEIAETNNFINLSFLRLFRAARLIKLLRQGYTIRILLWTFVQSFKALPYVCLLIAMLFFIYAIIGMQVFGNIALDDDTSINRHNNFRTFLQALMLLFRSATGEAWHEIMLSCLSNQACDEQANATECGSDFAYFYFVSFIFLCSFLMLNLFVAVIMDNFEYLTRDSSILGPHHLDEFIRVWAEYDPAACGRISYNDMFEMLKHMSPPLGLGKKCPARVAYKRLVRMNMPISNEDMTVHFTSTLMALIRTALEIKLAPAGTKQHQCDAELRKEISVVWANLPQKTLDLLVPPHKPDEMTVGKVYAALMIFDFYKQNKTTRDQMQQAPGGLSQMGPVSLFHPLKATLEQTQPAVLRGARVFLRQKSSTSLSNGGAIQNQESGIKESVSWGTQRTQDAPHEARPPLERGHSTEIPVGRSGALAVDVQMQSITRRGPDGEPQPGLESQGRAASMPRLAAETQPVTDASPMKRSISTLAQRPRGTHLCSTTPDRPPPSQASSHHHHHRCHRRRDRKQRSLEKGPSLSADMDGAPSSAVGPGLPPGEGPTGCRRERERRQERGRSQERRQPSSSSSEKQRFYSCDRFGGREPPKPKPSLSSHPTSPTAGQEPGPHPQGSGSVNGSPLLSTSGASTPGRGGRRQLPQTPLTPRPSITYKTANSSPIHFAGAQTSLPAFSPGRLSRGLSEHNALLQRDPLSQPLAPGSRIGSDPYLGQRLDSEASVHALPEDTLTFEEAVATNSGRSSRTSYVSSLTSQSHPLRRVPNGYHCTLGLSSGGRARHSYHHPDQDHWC

SMILES | Activity Category: %-Inhib (CaV2.2) @3 μM @30 mM KCl
COc1cc(C#N)c(C2CC(C)(S(=O)(=O)c3cccc(C(F)(F)F)c3)CCO2)cn1 (stereo not shown) [SC-260, 2-Methoxy-5-[4-methyl-4-[[3-(trifluoromethyl)phenyl]sulfonyl]-tetrahydro-pyran-2-yl]-isonicotinonitrile] | A (%-Inhibition >95%)
CCC1(S(=O)(=O)c2cccc(C(F)(F)F)c2)CCOC(c2nnc(C(F)(F)F)o2)C1 (stereo not shown) [SC-241, 2-[4-Ethyl-4-[[3-(trifluoromethyl)phenyl]sulfonyl]-tetrahydro-pyran-2-yl]-5-(trifluoromethyl)-[1,3,4]oxadiazole] | B (%-Inhibition >75% up to ≤95%)
CC1(S(=O)(=O)c2cc(F)cc(C(F)(F)F)c2)CCOC(c2ncc(S(C)(=O)=O)cc2Cl)C1 (stereo not shown) [SC-214, 3-Chloro-2-[4-[[3-fluoro-5-(trifluoromethyl)-phenyl]sulfonyl]-4-methyl-tetrahydro-pyran-2-yl]-5-methylsulfonyl-pyridine] | C (%-Inhibition >40% up to ≤75%)
CC(C)c1cccc(S(=O)(=O)C2(C)CCOC(c3ncc(S(C)(=O)=O)cc3Cl)C2)c1 (stereo not shown) [SC-447, 3-Chloro-2-[4-[(3-isopropyl-phenyl)sulfonyl]-4-methyl-tetrahydro-pyran-2-yl]-5-methylsulfonyl-pyridine] | A (%-Inhibition >95%)
CC1(S(=O)(=O)c2cccc(Cl)c2)CCOC(c2ncc(S(C)(=O)=O)cc2Cl)C1 (stereo not shown) [SC-439, 3-Chloro-2-[4-[(3-chlorophenyl)sulfonyl]-4-methyl-tetrahydro-pyran-2-yl]-5-methylsulfonyl-pyridine] | C (%-Inhibition >40% up to ≤75%)
CC1(S(=O)(=O)c2cccc(C(F)(F)F)c2)CCOC(c2nnc(C3CC3)o2)C1 (single isomer, unassigned) [SC-129, 2-Cyclopropyl-5-[4-methyl-4-[[3-(trifluoromethyl)phenyl]sulfonyl]-tetrahydro-pyran-2-yl]-[1,3,4]oxadiazole] | C (%-Inhibition >40% up to ≤75%)
COc1cc(OC)c(C2CC(C)(S(=O)(=O)c3cccc(C(F)(F)F)c3)CCO2)cn1 (stereo not shown) [SC-246, 2,4-Dimethoxy-5-[4-methyl-4-[[3-(trifluoromethyl)phenyl]sulfonyl]-tetrahydro-pyran-2-yl]-pyridine] | A (%-Inhibition >95%)
Cc1ccc(OCC2CC(C)(S(=O)(=O)c3cccc(C(F)(F)F)c3)CCO2)cn1 (single isomer, unassigned) [SC-112, 2-Methyl-5-[[4-methyl-4-[[3-(trifluoromethyl)phenyl]sulfonyl]-tetrahydro-pyran-2-yl]-methoxy]-pyridine] | C (%-Inhibition >40% up to ≤75%)
CCC1(S(=O)(=O)c2cccc(C(F)(F)F)c2)CCOC(c2ccc(C(F)(F)F)cn2)C1 (stereo not shown) [SC-109, 2-[4-Ethyl-4-[[3-(trifluoromethyl)phenyl]sulfonyl]-tetrahydro-pyran-2-yl]-5-(trifluoromethyl)-pyridine] | B (%-Inhibition >75% up to ≤95%)

Same assay, conditions: HEK293, 3 μM test compound; alternative assay buffer 30 mM KCl (inactivated channel state); HEK293 cells stably expressing human CaV2.2; read-out: Activity Category: %-Inhib (CaV2.2) @3 μM @30 mM KCl

SMILES | inhibition at 3 µM [%]
COc1ncc(C2CC(C)(S(=O)(=O)c3cccc(C(F)(F)F)c3)CCO2)cc1F (stereo not shown) [SC-255, 3-Fluoro-2-methoxy-5-[4-methyl-4-[[3-(trifluoromethyl)phenyl]sulfonyl]-tetrahydro-pyran-2-yl]-pyridine] | > 95
COc1cc(C)c(C2CC(C)(S(=O)(=O)c3cccc(C(F)(F)F)c3)CCO2)cn1 (racemic) [SC-252, 2-Methoxy-4-methyl-5-[4-methyl-4-[[3-(trifluoromethyl)phenyl]sulfonyl]-tetrahydro-pyran-2-yl]-pyridine] | 75 to 95
CNc1ccc(C2CC(C)(S(=O)(=O)c3cccc(C(F)(F)F)c3)CCO2)cn1 (racemic) [SC-412, Methyl-[5-[4-methyl-4-[[3-(trifluoromethyl)phenyl]sulfonyl]-tetrahydro-pyran-2-yl]-pyridin-2-yl]-amine] | 75 to 95
Cn1nc(S(C)(=O)=O)cc1C1CC(C)(S(=O)(=O)c2cccc(C(F)(F)F)c2)CCO1 (racemic) [SC-433, 1-Methyl-3-methylsulfonyl-5-[4-methyl-4-[[3-(trifluoromethyl)phenyl]sulfonyl]-tetrahydro-pyran-2-yl]-1H-pyrazole] | 40 to 75
CNc1ccc(C2CC(C)(S(=O)(=O)c3cccc(C(F)(F)F)c3)CCO2)cn1 (stereo not shown) [SC-408, Methyl-[5-[4-methyl-4-[[3-(trifluoromethyl)phenyl]sulfonyl]-tetrahydro-pyran-2-yl]-pyridin-2-yl]-amine] | 75 to 95
CCC1(S(=O)(=O)c2cccc(C(F)(F)F)c2)CCOC(c2cccnc2C)C1 (racemic) [SC-314, 3-[4-Ethyl-4-[[3-(trifluoromethyl)phenyl]sulfonyl]-tetrahydro-pyran-2-yl]-2-methyl-pyridine] | 40 to 75
CC1(S(=O)(=O)c2cccc(C(F)(F)F)c2)CCOC(c2ccc(C3CC3)cn2)C1 (stereo not shown) [SC-103, 5-Cyclopropyl-2-[4-methyl-4-[[3-(trifluoromethyl)phenyl]sulfonyl]-tetrahydro-pyran-2-yl]-pyridine] | > 95
CC1(S(=O)(=O)c2cccc(S(C)(=O)=O)c2)CCOC(c2ncc(C(F)(F)F)cc2S(C)(=O)=O)C1 (stereo not shown) [SC-210, 2-[4-Methyl-4-[(3-methylsulfonyl-phenyl)sulfonyl]-tetrahydro-pyran-2-yl]-3-methylsulfonyl-5-(trifluoromethyl)-pyridine] | > 95
COc1cc(F)c(C2CC(C)(S(=O)(=O)c3cccc(C(F)(F)F)c3)CCO2)cn1 (racemic) [SC-259, 4-Fluoro-2-methoxy-5-[4-methyl-4-[[3-(trifluoromethyl)phenyl]sulfonyl]-tetrahydro-pyran-2-yl]-pyridine] | > 95
Cn1nc(C(F)(F)F)cc1C1CC(C)(S(=O)(=O)c2cccc(C(F)(F)F)c2)CCO1 (racemic) [SC-344, 1-Methyl-5-[4-methyl-4-[[3-(trifluoromethyl)phenyl]sulfonyl]-tetrahydro-pyran-2-yl]-3-(trifluoromethyl)-1H-pyrazole] | 75 to 95
CC1(S(=O)(=O)c2cccc(C(F)(F)F)c2)CCOC(c2cnc(C(F)(F)F)nc2)C1 (stereo not shown) [SC-304, 5-[4-Methyl-4-[[3-(trifluoromethyl)phenyl]sulfonyl]-tetrahydro-pyran-2-yl]-2-(trifluoromethyl)-pyrimidine] | 75 to 95
COc1cc(OC)c(C2CC(C)(S(=O)(=O)c3cccc(C(F)(F)F)c3)CCO2)cn1 (stereo not shown) [SC-245, 2,4-Dimethoxy-5-[4-methyl-4-[[3-(trifluoromethyl)phenyl]sulfonyl]-tetrahydro-pyran-2-yl]-pyridine] | 75 to 95
CC1(S(=O)(=O)c2cccc(C(F)(F)F)c2)CCOC(c2ccc(OC(F)F)nc2)C1 (stereo not shown) [SC-418, 2-(Difluoro-methoxy)-5-[4-methyl-4-[[3-(trifluoromethyl)phenyl]sulfonyl]-tetrahydro-pyran-2-yl]-pyridine] | > 95
CC1(S(=O)(=O)c2cccc(C(F)(F)F)c2)CCOC(c2ccc(C(F)(F)F)cn2)C1 (stereo not shown) [SC-309, 2-[4-Methyl-4-[[3-(trifluoromethyl)phenyl]sulfonyl]-tetrahydro-pyran-2-yl]-5-(trifluoromethyl)-pyridine] | > 95
CCC1(S(=O)(=O)c2cccc(C(F)(F)F)c2)CCOC(c2nnc(C(F)(F)F)o2)C1 (racemic) [SC-242, 2-[4-Ethyl-4-[[3-(trifluoromethyl)phenyl]sulfonyl]-tetrahydro-pyran-2-yl]-5-(trifluoromethyl)-[1,3,4]oxadiazole] | 40 to 75
CC(C)Oc1ccc(C2CC(S(=O)(=O)c3cccc(C(F)(F)F)c3)CCO2)cn1 (stereo not shown) [SC-339, 2-Isopropoxy-5-[4-[[3-(trifluoromethyl)phenyl]sulfonyl]-tetrahydro-pyran-2-yl]-pyridine] | > 95
